{"source": "patent US7601750B2", "about": "“Small molecule inhibition of a PDZ-domain interaction” (The Regents of the University of California, priority 2003, dated 2009)", "key": {"[1]": {"tested_on": "H1703", "experiment": "Apoptotic effects in cancer cells overexpressing Dvl, H1703", "type": "cell-based, human", "experimental": "(§1) Compounds were tested for apoptotic effects to represent the inhibitory effects of compounds on interaction between the PDZ domain of the Dishevelled (Dlv) protein and the Fz protein (Wnt receptor). Cell lines H513 and H1703 were utilized, with test compounds (compound numbers from Tables 1 and 2) being applied at 0 (control), 10 μM and 100 μM."}, "[2]": {"tested_on": "Wnt/beta-Catenin signaling", "experiment": "Inhibition of Wnt/beta-Catenin signaling in H1703", "type": "cell-based", "conditions": "human lung cancer cell line H1703"}, "[3]": {"tested_on": "human lung cancer (H460) cells", "experiment": "Growth suppression and apoptosis in lung cancer H460 cells (other tests)", "type": "cell-based", "conditions": "100 μM, after 4 days"}, "[4]": {"tested_on": "human Dishevelled (Dvl) protein", "experiment": "Binding to Dishevelled protein"}, "[5]": {"tested_on": "Wnt/beta-Catenin signaling", "experiment": "Inhibition of Wnt/beta-Catenin signaling in A549", "type": "cell-based", "conditions": "human lung cancer cell line A549"}, "[6]": {"tested_on": "H513", "experiment": "Apoptotic effects in cancer cells overexpressing Dvl, H513", "type": "cell-based, human", "conditions": "for apoptosis, %: H513, 1 day", "experimental": "as §1"}, "[7]": {"tested_on": "human lung cancer (H1073) cells", "experiment": "Growth suppression and apoptosis in lung cancer cells (other tests)", "type": "cell-based", "conditions": "100 μM, after 4 days"}, "[8]": {"tested_on": "human melanoma (LOX) cells", "experiment": "Growth suppression and apoptosis in melanoma cells (other tests)", "type": "cell-based", "conditions": "100 μM, after 4 days"}}}
{"smiles": "CCCCC(O)c1cc2cc(C)c(C(=O)O)cc2n1CCc1ccccc1", "note": "(stereo not shown) [Compound 1, [2-(1-Hydroxypentyl)-5-methyl-1-(2-phenylethyl)]indole-6-carboxylic acid]", "values": [{"measurement": "apoptosis, %", "setting": "[1]; 10 μM, H1703, 4 days", "value": 6.2, "unit": "%"}, {"measurement": "apoptosis, %", "setting": "[1]; 100 μM, H1703, 4 days", "value": 38.7, "unit": "%"}]}
{"smiles": "CCCCCc1c(CO)c2cc(C)c(C(=O)[O-])cc2n1CCc1ccccc1.[Na+]", "note": "[Compound 6, Sodium [3-hydroxymethyl-2-(1-pentyl)-1-(2-phenylethyl)-5-methyl]indole-6-carboxylate]", "values": [{"measurement": "inhibition of Wnt/beta-Catenin signaling", "setting": "[2]", "value": "inhibit"}, {"measurement": "suppress cancer cell growth and induce apoptosis, % of the population", "setting": "[3]", "value": "about 20%"}, {"measurement": "binding to human Dishevelled (Dvl) protein", "setting": "[4]", "value": "bind"}, {"measurement": "inhibition of Wnt/beta-Catenin signaling", "setting": "[5]", "value": "inhibit"}, {"measurement": "apoptosis, %", "setting": "[1]; 10 μM, H1703, 1 day", "value": 8.2, "unit": "%"}, {"measurement": "apoptosis, %", "setting": "[1]; 100 μM, H1703, 1 day", "value": 34.0, "unit": "%"}, {"measurement": "apoptosis, %", "setting": "[6]; 10 μM", "value": 14.3, "unit": "%"}, {"measurement": "apoptosis, %", "setting": "[6]; 100 μM", "value": 52.5, "unit": "%"}, {"measurement": "suppress cancer cell growth and induce apoptosis, % of the population", "setting": "[6]; 100 μM, after 4 days, human mesothelioma (H513) cells", "value": "over 50%"}, {"measurement": "suppress cancer cell growth and induce apoptosis, % of the population", "setting": "[7]", "value": "up to 85.2%"}, {"measurement": "suppress cancer cell growth and induce apoptosis, % of the population", "setting": "[8]", "value": 35, "unit": "%"}]}
